In PubChem BioAssay (NCI):
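Values below derive from 48-hour exposures of cells grown in 96-well plates, with endpoints linearly interpolated between the two concentrations bracketing the appropriate inhibition level. Definition used: TGI = concentration required for complete inhibition of growth.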

How the values were obtained:
Test in all cases: NCI-60 cell line screen, 48 h
[1] = system: 786-0 renal
[2] = system: A498 renal
[3] = system: A549 NSCLC
[4] = system: ACHN renal
[5] = system: BT-549 breast
[6] = system: CAKI-1 renal
[7] = system: CCRF-CEM leukemia
[8] = system: COLO 205 colon
[9] = system: DU-145 prostate
[10] = system: EKVX NSCLC
[11] = system: HCC-2998 colon
[12] = system: HCT-116 colon
[13] = system: HCT-15 colon
[14] = system: HL-60(TB) leukemia
[15] = system: HOP-62 NSCLC
[16] = system: HOP-92 NSCLC
[17] = system: HS 578T breast
[18] = system: HT29 colon
[19] = system: IGROV1 ovarian
[20] = system: K-562 leukemia
[21] = system: KM12 colon
[22] = system: LOX IMVI melanoma
[23] = system: M14 melanoma
[24] = system: MALME-3M melanoma
[25] = system: MCF7 breast
[26] = system: MDA-MB-231 breast
[27] = system: MDA-MB-435
[28] = system: MOLT-4 leukemia
[29] = system: NCI-H226 lung
[30] = system: NCI-H23 lung
[31] = system: NCI-H460 lung
[32] = system: NCI/ADR-RES ovarian
[33] = system: OVCAR-3 ovarian
[34] = system: OVCAR-4 ovarian
[35] = system: OVCAR-5 ovarian
[36] = system: OVCAR-8 ovarian
[37] = system: PC-3 prostate
[38] = system: RPMI-8226 leukemia
[39] = system: RXF 393 renal
[40] = system: SF-268 CNS
[41] = system: SF-295 CNS
[42] = system: SF-539 CNS
[43] = system: SK-MEL-2 melanoma
[44] = system: SK-MEL-28 melanoma
[45] = system: SK-MEL-5 melanoma
[46] = system: SK-OV-3 ovarian
[47] = system: SNB-19 CNS
[48] = system: SNB-75 CNS
[49] = system: SR leukemia
[50] = system: SW-620 colon
[51] = system: T-47D breast
[52] = system: TK-10 renal
[53] = system: UACC-257 melanoma
[54] = system: UACC-62 melanoma
[55] = system: UO-31 renal

Measured: TGI

Cn1c(-c2cccc(N)c2)[n+](C)c2ccccc21
> 100 µM: [1] | [2] | [3] | [4] | [5] | [6] | [7] | [8] | [9] | [10] | [11] | [12] | [13] | [14] | [15] | [16] | [17] | [18] | [19] | [20] | [21] | [22] | [23] | [24] | [25] | [26] | [27] | [28] | [29] | [30] | [31] | [32] | [33] | [34] | [35] | [36] | [37] | [38] | [39] | [40] | [41] | [42] | [43] | [44] | [45] | [46] | [47] | [48] | [49] | [50] | [51] | [52] | [53] | [54] | [55]
